Results as given in paper PMC8618441, “From Natural Xanthones to Synthetic C-1 Aminated 3,4-Dioxygenated Xanthones as Optimized Antifouling Agents” (Marine Drugs, 2021).
Values after ≈ are worked out from the molar mass of the structure shown. Read-outs that look alike come from different tables or passages of the source.

Legend:
[1] = system: Escherichia coli; parameters: method as in PMID 23172582; details: in words; cited from earlier work
[2] = system: brine shrimp (Artemia salina); parameters: method as in PMID 23172582; details: in words; cited from earlier work
[3] = system: Staphylococcus aureus; parameters: method as in PMID 23172582; details: in words; cited from earlier work
[4] = system: Colletotrichum lagenarium; parameters: method as in PMID 23172582; details: in words; cited from earlier work
[5] = system: Balanus amphitrite larvae; details: cited from earlier work; for EC50, larval settlement of Balanus amphitrite / toxicity effects on the barnacle larvae: in vivo
[6] = system: Mytilus galloprovincialis plantigrade larvae; test: Mytilus galloprovincialis larvae anti-settlement bioassay; format: in vivo; details: for settlement of mussel larvae: at 50 µM; for anti-settlement response versus negative control: screening at 50 μM, Dunnett test p < 0.05
Method: (§1) For the bioassays, M. galloprovincialis juveniles were collected in intertidal mussel beds during low tides in Memória beach, Matosinhos, Portugal (41°13′59″ N; 8°43′28″ W). Mussel plantigrade larvae (0.5–2 mm) were sorted in a binocular magnifier (Olympus SZX2-ILLT, Tokyo, Japan) and those presenting foot exploring behavior for settlement were selected to the screening bioassays at 50 µM performed in 24-well microplates for 15 h, in the dark at 18 ± 1 °C, according to Almeida et al.. Four well replicates per condition and five competent larvae per well were included. Negative and positive controls were included, namely DMSO (0.1%) and CuSO4 (5 µM) as an efficient antifouling agent. Stock solutions in DMSO (50 mM) were used to prepare test media (50 µM) in filtered seawater (0.1% DMSO). After the exposure period, the anti-settlement bioactivity was determined by the observation of efficiently attached plantigrade larvae considering the existence/absence of produced byssal threads for each test condition.
(§2) Data from the anti-settlement screening were analyzed using a one-way analysis of variance (ANOVA), followed by a Dunnett test against the negative control (p < 0.05). […] Therapeutic ratios (LC50/EC50) were used to evaluate the effectiveness versus toxicity of bioactive compounds. […] The mixed model ANOVA was performed on log10(x + 1)-transformed values from 4 biological replicates, employing the software IBM SPSS Statistics (version 21, SPSS Inc., Chicago, IL, USA).

[7] = Toxicity (LC50, therapeutic ratio) toward mussel plantigrade larvae; format: in vivo; details: Mytilus galloprovincialis, in vivo, median lethal dose, mussel plantigrades
Method: as §1, §2

[8] = system: Mytilus galloprovincialis plantigrade larvae; test: as above; format: in vivo
Method: as §1, §2

[9] = system: Artemia salina nauplii; test: Brine shrimp (Artemia salina) lethality test, ecotoxicity; format: in vivo; details: 48 h; for mortality of Artemia salina nauplii: at 50 µM; for toxicity to A. salina: lowest concentration tested, 25 μM
Method: Ecotoxicity of the most promising xanthones to non-target species was assessed using the brine shrimp (Artemia salina) lethality test standard protocol. Newly hatched nauplii I larvae were used for the exposure to the most promising antifouling compounds at 50 and 25 µM. The bioassay was performed in 96-well microplates with eight replicates per condition and 15–20 nauplii per well, including a positive (K2Cr2O7 at 13.6 µM) and negative control (0.1% DMSO). The percentage of nauplii mortality for each condition was determined at the end of the exposure period (48 h).

[10] = system: Roseobacter litoralis CECT 5395; test: Biofilm-forming marine bacteria growth bioassay; format: cell-based; details: for inhibition at 12.5 µM: Roseobacter litoralis, read-out: growth inhibition of R. litoralis
Method: The experimental procedure was performed as previously reported by Almeida et al.. […] Bacterial growth inhibition in the presence of the compounds was determined in quadruplicate at 600 nm using a microplate reader (Biotek Synergy HT, Winooski, VT, USA). Negative and positive controls used were a solution of marine broth with 0.1% DMSO, and a stabilized solution of marine broth with penicillin-streptomycin-neomycin, respectively.

[11] = system: Mytilus galloprovincialis plantigrade larvae; details: cited from earlier work
[12] = system: Mytilus galloprovincialis plantigrade larvae; details: cited from earlier work; remark: listed apart in the source
[13] = system: Artemia salina nauplii; details: cited from earlier work
[14] = Mytilus galloprovincialis, 15 h, concentration that inhibited 50% of larval settlement of mussel plantigrades, 15 h exposure, read-out: EC50
[15] = Mytilus galloprovincialis, 15 h, concentration that inhibited 50% of larval settlement of mussel plantigrades, 15 h exposure, read-out: EC50 (μg.mL^−1)
[16] = other: larvae immersed in test media in filtered seawater
[17] = Mytilus galloprovincialis, 15 h
[18] = Mytilus galloprovincialis, 15 h, read-out: EC50 (μg.mL^−1)
[19] = larval settlement of mussel plantigrades

Row | Structure (SMILES) | EC50 [6, 14] [µM] | EC50 [6, 15] [µg/mL] | settlement of mussel larvae ([6]; 15 h) [%] | anti-settlement response versus negative control [6] | LC50 at 15 h [7, 16] [µM] | toxicity to the macrofouling species (mussel larvae) ([8]; in vivo) | mortality of Artemia salina nauplii [9] [%] | further results
1 | COC(=O)c1cc(OC)c2c(=O)c3c(O)cc(C)cc3oc2c1 [yicathin B] |  |  |  |  |  |  |  | antimicrobial activity against Escherichia coli [1]: active; brine shrimp (Artemia salina) toxicity [2]: weak
2 | COc1cc(C(=O)O)cc2oc3cc(C)cc(O)c3c(=O)c12 [yicathin C] |  |  |  |  |  |  |  | antimicrobial activity against Escherichia coli [1]: could inhibit; antimicrobial activity against Staphylococcus aureus [3]: could inhibit; antimicrobial activity against Colletotrichum lagenarium [4]: could inhibit; brine shrimp (Artemia salina) toxicity [2]: weak
3 | COc1cc2c(c3c(=O)c4c(OC)ccc(O)c4oc13)[C@@H]1C=CO[C@@H]1O2 [methoxysterigmatocystin] |  |  |  |  |  |  |  | EC50, larval settlement of Balanus amphitrite [5]: < 0.125 µg/mL; toxicity effects on the barnacle larvae [5]: induced paralyzing effects
4 | COC(=O)c1cc(O)cc2oc3c(Cl)c(C)c(Cl)c(O)c3c(=O)c12 [penicilixanthone] |  |  |  |  |  |  |  | EC50, larval settlement of B. amphitrite [5]: 17.1 µg/mL
5 | COc1cc(CN2CCCCC2)c2c(=O)c3ccccc3oc2c1OC [Compound 23, 3,4-dimethoxy-1-(piperidin-1-ylmethyl)-9H-xanthen-9-one] | ~4 | 1.26 | 20 | highly significant anti-settlement responses | > 100 | low toxicity | < 10 | EC50 ([6]; concentration that inhibited 50% of larval settlement of mussel plantigrades, 15 h exposure, read-out: EC50): 3.57 µM
6 | COc1cc(CNCCN2CCOCC2)c2c(=O)c3ccccc3oc2c1OC [Compound 16, 3,4-dimethoxy-1-(((2-morpholinoethyl)amino)methyl)-9H-xanthen-9-one] | 17.5 | 6.98 | 0 | highly significant anti-settlement responses | > 100 | low toxicity | < 10 | antibacterial bioactivity in concentration–response study ([10]; R. litoralis, concentrations between 2 and 32 µM (Figure S1)): not confirmed; inhibition at 12.5 µM ([10]; CECT5395, screening at 12.5 µM, 24 h): > 30%
7 | COc1cc2c(c3oc4cccc(O)c4c(=O)c13)[C@@H]1C=CO[C@@H]1O2 [sterigmatocystin] |  |  |  |  |  |  |  | EC50, larval settlement of Balanus amphitrite [5]: < 0.125 µg/mL; toxicity effects on the barnacle larvae [5]: induced paralyzing effects
8 | O=c1c2ccccc2oc2c(O)c(O)ccc12 [3,4-Dihydroxyxanthone] |  |  |  |  |  |  |  | activity toward the settlement of Mytilus galloprovincialis larvae ([11]; in words): exhibited in vivo activity; toxicity to the macrofouling species (mussel larvae) ([12]; in words): low toxicity; ecotoxicity toward A. salina, mortality [13]: < 10%
9 | COc1cc(C(Br)Br)c2c(=O)c3ccccc3oc2c1OC [Compound 6, 1-(dibromomethyl)-3,4-dimethoxy-9H-xanthen-9-one] |  |  |  | highly significant anti-settlement responses |  |  | < 10 | EC50 [6, 17]: 22.8 µM; EC50 [6, 18]: 9.75 µg/mL; LC50 at 15 h [7]: > 100 µM; toxicity to the macrofouling species (mussel larvae) ([8]; in words): low toxicity; inhibition at 12.5 µM ([10]; CECT5395, 24 h): > 30%
10 | COc1ccc2c(=O)c3c(CCl)cc(OC)c(OC)c3oc2c1 [Compound 4, 1-(chloromethyl)-3,4,6-trimethoxy-9H-xanthen-9-one] | 16.1 | 5.41 | 20 | highly significant anti-settlement responses | > 100 | low toxicity | < 10 | 
11 | N#Cc1c(-c2ccc(Cl)cc2)[nH]c(C(F)(F)F)c1Br [ECONEA] |  |  |  |  |  |  |  | EC50 [11, 19]: 4.01 µM; EC50 (μg.mL^−1) [11, 19]: 1.40 µg/mL (≈ 4.01 µM); LC50 ([12]; median lethal dose, mussel plantigrades): 108 µM; mortality of Artemia salina ([13]; at the same concentration range (25-50 µM)): 100%
12 | COc1cc(CN2CCN(CCO)CC2)c2c(=O)c3ccccc3oc2c1OC [Compound 19, 1-((4-(2-hydroxyethyl)piperazin-1-yl)methyl)-3,4-dimethoxy-9H-xanthen-9-one] | 53.9 | 21.5 | 10 | highly significant anti-settlement responses | > 100 | low toxicity | < 10 | 
13 | COc1cc(C)c2c(=O)c3ccccc3oc2c1OC [Compound 1, 3,4-dimethoxy-1-methyl-9H-xanthen-9-one] |  |  |  | highly significant anti-settlement responses |  |  |  | EC50 [6, 17]: 11.8 µM; EC50 [6, 18]: 3.19 µg/mL; LC50 at 15 h [7]: > 100 µM; toxicity to the macrofouling species (mussel larvae) ([8]; in words): low toxicity; toxicity to A. salina [9]: significant toxicity
14 | COc1cc(CN2CCc3c(N)cccc3C2)c2c(=O)c3ccccc3oc2c1OC [Compound 21, 1-((5-amino-3,4-dihydroisoquinolin-2(1H)-yl)methyl)-3,4-dimethoxy-9H-xanthen-9-one] | 7.28 | 3.03 | 20 | highly significant anti-settlement responses | > 100 | low toxicity | < 10 | 
15 | COc1ccc2c(=O)c3c(C)c(Cl)c(OC)c(OC)c3oc2c1 [Compound 3, 2-chloro-3,4,6-trimethoxy-1-methyl-9H-xanthen-9-one] |  |  |  | nullified the significant anti-settlement effect |  |  |  | 
16 | COc1ccc2c(=O)c3c(CBr)cc(OC)c(OC)c3oc2c1 [Compound 5, 1-(bromomethyl)-3,4,6-trimethoxy-9H-xanthen-9-one] |  |  | 45 |  |  |  |  | 
17 | COc1ccc2c(=O)c3c(C)cc(OC)c(OC)c3oc2c1 [Compound 2, 3,4,6-trimethoxy-1-methyl-9H-xanthen-9-one] |  |  |  | highly significant anti-settlement responses |  |  |  | EC50 [6, 17]: 27.2 µM; EC50 [6, 18]: 8.15 µg/mL; LC50 at 15 h [7]: > 100 µM; toxicity to the macrofouling species (mussel larvae) ([8]; in words): low toxicity; toxicity to A. salina [9]: significant toxicity
18 | COc1cc(CO)c2c(=O)c3ccccc3oc2c1OC [Compound 8, 1-(hydroxymethyl)-3,4-dimethoxy-9H-xanthen-9-one] | 21.8 | 6.25 | 35 | highly significant anti-settlement responses | > 100 | low toxicity | < 10 | 
